Key:
[1] = target: T1, HCV polymerase (NS5B) type 1a (Hepatitis C virus genotype 1a, UniProt P26664); assay: Assay of enzyme (HCV polymerase) inhibitory activity, type 1a enzyme; type: biochemical, HCV type 1a (cloned from the blood of patients); details: HCV polymerase inhibitory activity IC50, 1a, type 1a enzyme
T1 construct: made in house; host or cells: Escherichia coli (by the 'similar method' of the 1b enzyme)
Summary of the method: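 IC50 values derive from radioactivity of newly synthesized RNA with versus without test compound. The enzyme was C-terminally truncated type 1a NS5B, 1.5 μg/ml, run 60 min at 25° C with 3H-UTP-labelled nucleotides.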

[2] = target: T2, HCV polymerase (NS5B) type 1b (Hepatitis C virus genotype 1b, UniProt P26663); assay: Assay of enzyme (HCV polymerase) inhibitory activity, type 1b enzyme; type: biochemical, HCV BK strain (type 1b); details: HCV polymerase inhibitory activity IC50, 1b, type 1b enzyme
T2 construct: a region encoding NS5B (J Virol 1991 March, 65(3), 1105-13, 544 amino acids after deletion of 47 amino acids on the C-terminal); 6xHis (C); made in house; host or cells: Escherichia coli
Summary of the method: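 Polymerase activity was followed as radiolabelled UTP incorporation by E. coli-expressed, His-tagged NS5B of HCV type 1b lacking its last 47 residues. Conditions: 2 μM UTP, 50 μM other NTPs, Mg2+ buffer at pH 7.5, 25 °C for 60 min. Inhibition relative to compound-free reactions gave IC50.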

`CCCc1ccc(CNC(=O)[C@H]2CN(c3nc(C)c(C(=O)O)cc3F)CCN2S(=O)(=O)c2ccc(OC(F)(F)F)cc2)cc1` [Example 823, 5-fluoro-2-methyl-6-[(R)-3-(4-propyl-benzylcarbamoyl)-4-(4-trifluoromethoxy-benzenesulfonyl)-piperazin-1-yl]-nicotinic acid] showed an IC50 [1] of 100 to 1000 nM and an IC50 [2] of 100 to 1000 nM.
In the case of `CCCc1ccc(CNC(=O)[C@H]2CN(c3cnc4cncc(C(=O)O)c4n3)CCN2S(=O)(=O)c2ccc(OC(F)(F)F)cc2)cc1` [Example 824, 2-[(R)-3-(4-propyl-benzylcarbamoyl)-4-(4-trifluoromethoxy-benzenesulfonyl)-piperazin-1-yl]-pyrido[3,4-b]pyrazine-8-carboxylic acid], the IC50 [1] is reported as under 100 nM and the IC50 [2] is reported as under 100 nM.
`CCCc1ccc(CNC(=O)[C@H]2CN(c3nc4cn[nH]c(=O)c4s3)CCN2S(=O)(=O)c2ccc([N+](=O)[O-])cc2)cc1` [Example 825, (R)-1-(4-nitro-benzenesulfonyl)-4-(7-oxo-6,7-dihydro-thiazolo[4,5-d]pyridazin-2-yl)-piperazine-2-carboxylic acid 4-propyl-benzylamide] showed an IC50 [1] of under 100 nM and an IC50 [2] of under 100 nM.
`CCCc1ccc(CNC(=O)[C@H]2CN(c3nc(C)c(CCC(=O)O)s3)CCN2S(=O)(=O)c2ccc(OC(F)(F)F)cc2)cc1` [Example 826, 3-{4-methyl-2-[(R)-3-(4-propyl-benzylcarbamoyl)-4-(4-trifluoromethoxy-benzenesulfonyl)-piperazin-1-yl]-thiazol-5-yl}-propionic acid] showed an IC50 [1] of under 100 nM and an IC50 [2] of under 100 nM.
In the case of `CCCc1ccc(CNC(=O)[C@H]2CN(c3nc(C)c(S(N)(=O)=O)s3)CCN2S(=O)(=O)c2ccc(OC(F)(F)F)cc2)cc1` [Example 827, (R)-4-(4-methyl-5-sulfamoyl-thiazol-2-yl)-1-(4-trifluoromethoxy-benzenesulfonyl)-piperazine-2-carboxylic acid 4-propyl-benzylamide], the IC50 [1] is reported as under 100 nM and the IC50 [2] is reported as under 100 nM.
`CCCc1ccc(CNC(=O)[C@H]2CN(c3nc(C)c(S(=O)(=O)NC)s3)CCN2S(=O)(=O)c2ccc(OC(F)(F)F)cc2)cc1` [Example 828, (R)-4-(4-methyl-5-methylsulfamoyl-thiazol-2-yl)-1-(4-trifluoromethoxy-benzenesulfonyl)-piperazine-2-carboxylic acid 4-propyl-benzylamide] showed an IC50 [1] of under 100 nM and an IC50 [2] of under 100 nM.
`CCCc1ccc(CNC(=O)[C@H]2CN(c3nc(C)c(S(=O)(=O)N(C)C)s3)CCN2S(=O)(=O)c2ccc(OC(F)(F)F)cc2)cc1` [Example 829, (R)-4-(5-dimethylsulfamoyl-4-methyl-thiazol-2-yl)-1-(4-trifluoromethoxy-benzenesulfonyl)-piperazine-2-carboxylic acid 4-propyl-benzylamide] showed an IC50 [1] of 100 to 1000 nM and an IC50 [2] of under 100 nM.
In the case of `CCCc1ccc(CNC(=O)[C@H]2CN(C(=O)Nc3ccccc3)CCN2S(=O)(=O)c2ccc(OC(F)(F)F)cc2)cc1` [Example 830, (R)-4-(4-trifluoromethoxy-benzenesulfonyl)-piperazine-1,3-dicarboxylic acid 1-phenylamide 3-(4-propyl-benzylamide)], the IC50 [1] is reported as 100 to 1000 nM and the IC50 [2] is reported as under 100 nM.
`CCCc1ccc(CNC(=O)[C@H]2CN(C(=O)Nc3ccccc3C(=O)OC)CCN2S(=O)(=O)c2ccc(OC(F)(F)F)cc2)cc1` [Example 831, 2-{[(R)-3-(4-propyl-benzylcarbamoyl)-4-(4-trifluoromethoxy-benzenesulfonyl)-piperazine-1-carbonyl]-amino}-benzoic acid methyl ester] gave an IC50 [1] of over 1000 nM and an IC50 [2] of over 1000 nM.
`CCCc1ccc(CNC(=O)[C@H]2CN(c3nc(C)c(S(=O)(=O)NC(C)=O)s3)CCN2S(=O)(=O)c2ccc(OC(F)(F)F)cc2)cc1` [Example 832, (R)-4-(5-acetylsulfamoyl-4-methyl-thiazol-2-yl)-1-(4-trifluoromethoxy-benzenesulfonyl)-piperazine-2-carboxylic acid 4-propyl-benzylamide] was tested, and the IC50 [1] was under 100 nM and the IC50 [2] was under 100 nM.
Work on `CCCc1ccc(CNC(=O)[C@H]2CN(C(=O)Nc3ccccc3OCc3ccccc3)CCN2S(=O)(=O)c2ccc(OC(F)(F)F)cc2)cc1` [Example 833, (R)-4-(4-trifluoromethoxy-benzenesulfonyl)-piperazine-1,3-dicarboxylic acid 1-[(2-benzyloxy-phenyl)-amide] 3-(4-propyl-benzylamide)] yielded an IC50 [1] of over 1000 nM and an IC50 [2] of over 1000 nM.
`CCCc1ccc(CNC(=O)[C@H]2CN(C(=O)Nc3ccccc3O)CCN2S(=O)(=O)c2ccc(OC(F)(F)F)cc2)cc1` [Example 834, (R)-4-(4-trifluoromethoxy-benzenesulfonyl)-piperazine-1,3-dicarboxylic acid 1-[(2-hydroxy-phenyl)-amide] 3-(4-propyl-benzylamide)] gave an IC50 [1] of 100 to 1000 nM and an IC50 [2] of 100 to 1000 nM.
For `O=C(NCc1ccc(OC(F)(F)F)cc1)[C@H]1CN(c2nc3cn[nH]c(=O)c3s2)CCN1S(=O)(=O)c1ccc([N+](=O)[O-])cc1` [Example 835, (R)-1-(4-nitro-benzenesulfonyl)-4-(7-oxo-6,7-dihydro-thiazolo[4,5-d]pyridazin-2-yl)-piperazine-2-carboxylic acid 4-trifluoromethoxy-benzylamide], the IC50 [1] was under 100 nM and the IC50 [2] was under 100 nM.
With `CCC(F)(F)c1ccc(CNC(=O)[C@H]2CN(c3cnc4cncc(C(=O)O)c4n3)CCN2S(=O)(=O)c2ccc(OC(F)(F)F)cc2)cc1` [Example 836, 2-[(R)-3-[4-(1,1-difluoro-propyl)-benzylcarbamoyl]-4-(4-trifluoromethoxy-benzenesulfonyl)-piperazin-1-yl]-pyrido[3,4-b]pyrazine-8-carboxylic acid] the IC50 [1] was under 100 nM and the IC50 [2] was under 100 nM.
`CCCc1ccc(CNC(=O)[C@H]2CN(C(=O)Nc3ccccc3C(=O)OCc3ccccc3)CCN2S(=O)(=O)c2ccc(OC(F)(F)F)cc2)cc1` [Example 837, 2-{[(R)-3-(4-propyl-benzylcarbamoyl)-4-(4-trifluoromethoxy-benzenesulfonyl)-piperazine-1-carbonyl]-amino}-benzoic acid benzyl ester] was tested, and the IC50 [1] was over 1000 nM and the IC50 [2] was over 1000 nM.
`CCCc1ccc(CNC(=O)[C@H]2CN(C(=O)Nc3ccccc3C(=O)O)CCN2S(=O)(=O)c2ccc(OC(F)(F)F)cc2)cc1` [Example 838, 2-{[(R)-3-(4-propyl-benzylcarbamoyl)-4-(4-trifluoromethoxy-benzenesulfonyl)-piperazine-1-carbonyl]-amino}-benzoic acid] gave an IC50 [1] of over 1000 nM and an IC50 [2] of over 1000 nM.
With `Cc1n[nH]c(=O)c2sc(N3CCN(S(=O)(=O)c4ccc(OC(F)(F)F)cc4)[C@@H](C(=O)NCc4ccc(OC(F)(F)F)cc4)C3)nc12` [Example 839, (R)-4-(4-methyl-7-oxo-6,7-dihydro-thiazolo[4,5-d]pyridazin-2-yl)-1-(4-trifluoromethoxy-benzenesulfonyl)-piperazine-2-carboxylic acid 4-trifluoromethoxy-benzylamide] the IC50 [1] was under 100 nM and the IC50 [2] was under 100 nM.
`CCC(C)(C)c1ccc(CNC(=O)[C@H]2CN(c3nc4cn[nH]c(=O)c4s3)CCN2S(=O)(=O)c2ccc(OC(F)(F)F)cc2)cc1` [Example 840, (R)-4-(7-oxo-6,7-dihydro-thiazolo[4,5-d]pyridazin-2-yl)-1-(4-trifluoromethoxy-benzenesulfonyl)-piperazine-2-carboxylic acid 4-(1,1-dimethyl-propyl)-benzylamide] gave an IC50 [1] of under 100 nM and an IC50 [2] of under 100 nM.
Compound `CCCCc1ccc(CNC(=O)[C@H]2CN(c3nc4cn[nH]c(=O)c4s3)CCN2S(=O)(=O)c2ccc(OC(F)(F)F)cc2)cc1` [Example 841, (R)-4-(7-oxo-6,7-dihydro-thiazolo[4,5-d]pyridazin-2-yl)-1-(4-trifluoromethoxy-benzenesulfonyl)-piperazine-2-carboxylic acid 4-butyl-benzylamide] has an IC50 [1] of under 100 nM and an IC50 [2] of under 100 nM.
`CCCc1ccc(CNC(=O)[C@H]2CN(c3cnc4cncc(C(=O)O)c4n3)CCN2S(=O)(=O)c2ccc(C(F)(F)F)cc2)cc1` [Example 842, 2-[(R)-3-(4-propyl-benzylcarbamoyl)-4-(4-trifluoromethyl-benzenesulfonyl)-piperazin-1-yl]-pyrido[3,4-b]pyrazine-8-carboxylic acid] gave an IC50 [1] of under 100 nM and an IC50 [2] of under 100 nM.
`CCCc1ccc(CNC(=O)[C@H]2CN(c3cnc4cncc(C(=O)O)c4n3)CCN2S(=O)(=O)c2ccc([N+](=O)[O-])cc2)cc1` [Example 843, 2-[(R)-4-(4-nitro-benzenesulfonyl)-3-(4-propyl-benzylcarbamoyl)-piperazin-1-yl]-pyrido[3,4-b]pyrazine-8-carboxylic acid] was tested, and the IC50 [1] was under 100 nM and the IC50 [2] was under 100 nM.
In the case of `CCCc1ccc(CNC(=O)[C@H]2CN(c3cnc4cncc(C(=O)O)c4n3)CCN2S(=O)(=O)c2ccc(C(C)(C)C)cc2)cc1` [Example 844, 2-[(R)-4-(4-tert-butyl-benzenesulfonyl)-3-(4-propyl-benzylcarbamoyl)-piperazin-1-yl]-pyrido[3,4-b]pyrazine-8-carboxylic acid], the IC50 [1] is reported as under 100 nM and the IC50 [2] is reported as under 100 nM.
`CCCc1ccc(CNC(=O)[C@H]2CN(c3cnc4cncc(C(=O)O)c4n3)CCN2S(=O)(=O)c2ccc(Cl)cc2)cc1` [Example 845, 2-[(R)-4-(4-chloro-benzenesulfonyl)-3-(4-propyl-benzylcarbamoyl)-piperazin-1-yl]-pyrido[3,4-b]pyrazine-8-carboxylic acid] gave an IC50 [1] of under 100 nM and an IC50 [2] of under 100 nM.

From patent US8017612B2, “Piperazine compound and use thereof as a HCV polymerase inhibitor” (priority 2006, dated 2011)
